Consider one molecule from EP4744665A1, “COMBINATION OF POLQ INHIBITOR COMPOUND AND ANTI-CANCER THERAPEUTIC AGENT OR RADIOTHERAPY” (Simcere Zaiming Pharmaceutical Co., Ltd., priority 2023, dated 2025).

The subject of data set [1] is A2780. The experiment in a line: Combined use with combination drug, matrix study, Bliss Independence model (Cell Titer Glo, 7 days). It is filed as cell-based, human. As for the experimental part:
(§1) DLD-1 colorectal adenocarcinoma cells, DLD-1 BRCA2 (-/-) colorectal adenocarcinoma cells, SHP-77 human small cell lung cancer cells, NCI-H82 human small cell lung cancer cells, LNCAP prostate cancer cells, KURAMOCHI human ovarian cancer cells, A2780 human ovarian cancer cells, and NCI-H23 non-small cell lung cancer cells were cultured in a 1640 medium containing 10% fetal bovine serum. SKOV3 human ovarian cancer cells were cultured in a McCoy's 5A (modified) medium containing 10% fetal bovine serum. OVCAR3 ovarian cancer cells were cultured in a 1640 medium containing 20% fetal bovine serum and 10 µg/mL bovine insulin. MDA-MB-436 breast cancer cells (natural BRCA1 mutation) and A549 non-small cell lung cancer cells were cultured in a DMEM medium containing 10% fetal bovine serum. Capan-1 human pancreatic cancer cells (natural BRCA2 mutation) were cultured in an IMDM medium containing 20% fetal bovine serum. The cells were all cultured at 37 °C with 5% CO2. Cells at the logarithmic growth phase were available for the experiment.
(§2) 100 µL of the cell medium was added to rows A and H and columns 1 and 12 of a 96-well cell culture plate. Cultured cells were resuspended (adherent cells were digested with trypsin) and counted to give information on cell density and viability. The dilution ratio of the resuspended cells required for inoculating a fixed number of cells into 80 µL of the medium in each culture well was calculated based on the cell density information. After the resuspended cells were diluted with the corresponding medium, 80 µL of the diluted cells were transferred to columns 2-11 of rows B-G of a 96-well cell culture plate using an Eppendorf multi-channel pipette (60 wells in total for each plate). The cell culture plate was incubated overnight in an incubator at 37 °C with 5% CO2.
(§3) The test compound and the combination compound were dissolved in DMSO to give a 10 mM solution for later use. In the experiment, the compound was further diluted to the corresponding concentration according to the concentration designed in the experiment, and based on this concentration, serial gradient dilution was performed. Matrix study was performed at 8 or 7 dose concentrations of the test compound (the lowest dose concentration was 0, and other specific concentration values were shown in FIG. 1) and 7 or 8 dose concentrations of the combination compound (the lowest dose concentration was 0, and other specific concentration values were shown in FIG. 1). 10 µL of each of the diluted combination compound and test compound was added to the corresponding cell plate well, such that the final concentration of DMSO was 0.25%. The test compound and the cells were incubated in an incubator at 37 °C with 5% CO2 for another 7 days, Cell Titer Glo was added at 50 µL/well, and the luminescence value of each well was read using an Envision microplate reader.
(§4) The luminescence value of the well containing only the cell medium was taken as the background (RLUbackground, corresponding cell survival rate to be 0%), the cell well containing only 0.25% DMSO without the compound was taken as the maximum signal (RLUDMSO, corresponding cell survival rate to be 100%), and the luminescence values of the remaining wells containing cells and compounds at different concentrations were taken as RLUsample. The survival rate of each cell well was calculated as follows: Survival rate (%) = (RLUsample−RLUbackground)/(RLUDMSO−RLUbackground) × 100% [formula]
(§5) The interaction between drugs (synergistic, independent, or antagonistic) was statistically analyzed by the Bliss Independence model using Combenefit software (Bliss, C.I., Bacteriol. Rev., 1956, 20, 243-258). The model assumes that each drug acts independently. The theoretical expected action curve of the combination was calculated from the following equation: Bliss effect = effect A + effect B−effect A × effect B [formula] wherein effect A and effect B are the effects of drugs A and B alone at specific concentrations. […]

In data set [2] the test system is Capan-1. Described as above. In kind it is cell-based, human. The method, then: as §1, §2, §3, §4, §5
For data set [3], the system named is KURAMOCHI
The description is as above. It is filed as cell-based, human. As for the experimental part:
as §1, §2, §3, §4, §5

Data set [4] relates to NCI-H82. Described as above. In kind it is cell-based, human. The settings on record: combination with Etoposide (Topoisomerase II inhibitor). The method, then: as §1, §2, §3, §4, §5
Data set [5] relates to SKOV3. The data set is described as above. In kind it is cell-based, human. As for the experimental part:
as §1, §2, §3, §4, §5

Data set [6] concerns human colorectal adenocarcinoma DLD1 BRCA2-/- cells. The experiment in a line: Efficacy of combined use with olaparib in DLD1 BRCA2-/- xenograft tumor model. It is filed as in vivo, NU/NU nude mice. The settings on record: 10 mg/kg QD intragastric in combination with 50 mg/kg olaparib QD. The source says: The anti-tumor activity of the sodium salt of compound I used in combination with olaparib (MCE, 136925) was studied using a DLD1 BRCA2-/- subcutaneous tumor model. 32 female NU/NU nude mice (6-8 weeks old, Beijing Vital River Laboratory Animal Technology Co., Ltd.) were subcutaneously inoculated with 1 × 10^7 human colorectal adenocarcinoma DLD1 BRCA2-/- cells (Horizon- HD105-007). When the tumors grew to 80-100 mm^3, the mice were randomly divided into four groups with eight mice per group: a first group treated with vehicle control (QD) by intragastric administration, a second group treated with a 10 mg/kg solution of the sodium salt of compound I (QD) by intragastric administration, a third group treated with a 50 mg/kg olaparib solution (QD) by intragastric administration, and a fourth group treated with a 10 mg/kg solution of the sodium salt of compound I (QD) by intragastric administration and a 50 mg/kg olaparib solution (QD) by intragastric administration. The vehicle of olaparib was a solution containing 10% DMSO, 50% 2-hydroxypropyl-β-cyclodextrin (Aladdin-F2223139, 60% aqueous solution), and 40% water, the vehicle of the sodium salt of compound I was 10% (w/v) Vitamin E TPGS (Hanhong Chemical-BH-GN0100619-22 1101) aqueous solution, and the vehicle of the vehicle control group was a mixture of the vehicle of olaparib and the vehicle of the sodium salt of compound I (mixed at a volume ratio of 1:1). Mice had free access to food and water throughout the experiment.
Tumor diameters were measured twice weekly using a vernier caliper. The tumor volume (V) was calculated using the following formula: V = 0.5a × b^2, wherein a and b represent the long diameter and short diameter of the tumor, respectively.
Mouse body weight was measured twice weekly.
Two way ANOVA was used to compare the differences in tumor growth trend among groups, and a significant difference was considered when p < 0.05.

Where [7] appears, read: combination with Doxorubicin hydrochloride (Topoisomerase II inhibitor).
[8] abbreviates: combination with Paclitaxel (Tubulin inhibitor).

Consider `COc1ccc(Cl)cc1-c1cc(C)ncc1C(=O)Nc1nc2ncc(-c3ccc(C#N)cc3)nc2s1.[Na]` [Sodium salt of compound I, Sodium Salt of 4-(5-Chloro-2-methoxyphenyl)-N-[6-(4-cyanophenyl)thiazolo[4,5-b]pyrazin-2-yl]-6-methylnicotinamide], for which the Combined effect entry in data set [1] (setting [7]), in data set [1] (combination with Etoposide (Topoisomerase II inhibitor)), in data set [1] (setting [8]), in data set [2] (combination with Niraparib (PARP inhibitor)), in data set [2] (combination with Olaparib (PARP inhibitor)) and in data set [2] (combination with RP3500 (ATR inhibitor)) was “Synergistic” throughout. Also, the Combined effect result in data set [2] (combination with Talazoparib (PARP inhibitor)), in data set [3] (setting [7]), in data set [3] (setting [8]), in data set [4], in data set [5] (setting [7]) and in data set [5] (setting [8]) was “Synergistic” each time. Besides, the “anti-tumor effect of combination with olaparib” value in data set [6] is “strong synergistic anti-tumor effect”. For the same molecule, the tumor volume entry in data set [6] (versus either single drug group) is given as “significantly lower”. Besides, the safety entry in data set [6] (condition of mice, body weight) is reported as “good safety”.
